Measurements as given in ChEMBL document CHEMBL1201862, “PubChem BioAssay data set” (2004).
Values belong to the compound of their own block, whether it stands above or below them. Activity calls are given as the source filed them.

Columns and labels:
[1] = tested on: Streptococcus sp. 'group A'; experiment: Streptococcus pyogenes SK(-)GAS viability under kanamycin – luminescence, BacTiterGlo, confirmation, counter-screen for streptokinase expression inhibitor project, dose response (AID 1900); format: functional, organism-based
[2] = tested on: Streptococcus; experiment: GAS UMAA2166 growth inhibition – luminescence, BacTiterGlo, counter-screen for streptokinase expression inhibitor project, dose response (AID 1915); format: functional, organism-based;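 note: potency for reduction of bacterial viability or growth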
[3] = biological target: T1, Dual specificity protein phosphatase 6 (Rattus norvegicus, UniProt Q64346); experiment: inhibition of rat DUSP6 enzyme activity – biochemical, in vitro, primary screen (AID 425)
T1 sequence (Q64346 whole entry): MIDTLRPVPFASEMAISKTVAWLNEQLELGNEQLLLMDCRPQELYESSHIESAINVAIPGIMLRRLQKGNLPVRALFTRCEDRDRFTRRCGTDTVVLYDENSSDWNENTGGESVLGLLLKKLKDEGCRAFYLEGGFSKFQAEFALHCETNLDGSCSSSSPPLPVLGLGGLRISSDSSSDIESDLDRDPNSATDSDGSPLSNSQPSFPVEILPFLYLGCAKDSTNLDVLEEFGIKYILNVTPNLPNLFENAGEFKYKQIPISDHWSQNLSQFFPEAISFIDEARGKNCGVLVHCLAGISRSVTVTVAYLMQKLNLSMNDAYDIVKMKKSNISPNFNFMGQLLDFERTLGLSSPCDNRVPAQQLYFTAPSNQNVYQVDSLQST

[4] = biological target: Peroxisome proliferator-activated receptor gamma/Nuclear receptor corepressor 2 (Homo sapiens, UniProt P37231+Q9Y618); format: functional
Sequence of Peroxisome proliferator-activated receptor gamma/Nuclear receptor corepressor 2 (P37231 whole entry): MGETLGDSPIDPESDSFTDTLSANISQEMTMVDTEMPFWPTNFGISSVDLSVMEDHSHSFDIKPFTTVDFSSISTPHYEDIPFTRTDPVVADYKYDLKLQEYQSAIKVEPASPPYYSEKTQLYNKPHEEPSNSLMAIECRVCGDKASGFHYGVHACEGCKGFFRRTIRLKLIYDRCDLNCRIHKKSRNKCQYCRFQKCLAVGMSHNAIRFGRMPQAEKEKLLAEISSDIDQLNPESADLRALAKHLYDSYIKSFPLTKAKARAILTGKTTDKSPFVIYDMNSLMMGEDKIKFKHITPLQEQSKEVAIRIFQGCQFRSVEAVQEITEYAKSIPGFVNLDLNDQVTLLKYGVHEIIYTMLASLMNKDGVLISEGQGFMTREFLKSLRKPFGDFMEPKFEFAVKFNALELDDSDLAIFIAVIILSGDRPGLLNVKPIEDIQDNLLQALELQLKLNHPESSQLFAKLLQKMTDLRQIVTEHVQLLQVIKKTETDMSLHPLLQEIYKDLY
Sequence of Peroxisome proliferator-activated receptor gamma/Nuclear receptor corepressor 2 (Q9Y618 whole entry): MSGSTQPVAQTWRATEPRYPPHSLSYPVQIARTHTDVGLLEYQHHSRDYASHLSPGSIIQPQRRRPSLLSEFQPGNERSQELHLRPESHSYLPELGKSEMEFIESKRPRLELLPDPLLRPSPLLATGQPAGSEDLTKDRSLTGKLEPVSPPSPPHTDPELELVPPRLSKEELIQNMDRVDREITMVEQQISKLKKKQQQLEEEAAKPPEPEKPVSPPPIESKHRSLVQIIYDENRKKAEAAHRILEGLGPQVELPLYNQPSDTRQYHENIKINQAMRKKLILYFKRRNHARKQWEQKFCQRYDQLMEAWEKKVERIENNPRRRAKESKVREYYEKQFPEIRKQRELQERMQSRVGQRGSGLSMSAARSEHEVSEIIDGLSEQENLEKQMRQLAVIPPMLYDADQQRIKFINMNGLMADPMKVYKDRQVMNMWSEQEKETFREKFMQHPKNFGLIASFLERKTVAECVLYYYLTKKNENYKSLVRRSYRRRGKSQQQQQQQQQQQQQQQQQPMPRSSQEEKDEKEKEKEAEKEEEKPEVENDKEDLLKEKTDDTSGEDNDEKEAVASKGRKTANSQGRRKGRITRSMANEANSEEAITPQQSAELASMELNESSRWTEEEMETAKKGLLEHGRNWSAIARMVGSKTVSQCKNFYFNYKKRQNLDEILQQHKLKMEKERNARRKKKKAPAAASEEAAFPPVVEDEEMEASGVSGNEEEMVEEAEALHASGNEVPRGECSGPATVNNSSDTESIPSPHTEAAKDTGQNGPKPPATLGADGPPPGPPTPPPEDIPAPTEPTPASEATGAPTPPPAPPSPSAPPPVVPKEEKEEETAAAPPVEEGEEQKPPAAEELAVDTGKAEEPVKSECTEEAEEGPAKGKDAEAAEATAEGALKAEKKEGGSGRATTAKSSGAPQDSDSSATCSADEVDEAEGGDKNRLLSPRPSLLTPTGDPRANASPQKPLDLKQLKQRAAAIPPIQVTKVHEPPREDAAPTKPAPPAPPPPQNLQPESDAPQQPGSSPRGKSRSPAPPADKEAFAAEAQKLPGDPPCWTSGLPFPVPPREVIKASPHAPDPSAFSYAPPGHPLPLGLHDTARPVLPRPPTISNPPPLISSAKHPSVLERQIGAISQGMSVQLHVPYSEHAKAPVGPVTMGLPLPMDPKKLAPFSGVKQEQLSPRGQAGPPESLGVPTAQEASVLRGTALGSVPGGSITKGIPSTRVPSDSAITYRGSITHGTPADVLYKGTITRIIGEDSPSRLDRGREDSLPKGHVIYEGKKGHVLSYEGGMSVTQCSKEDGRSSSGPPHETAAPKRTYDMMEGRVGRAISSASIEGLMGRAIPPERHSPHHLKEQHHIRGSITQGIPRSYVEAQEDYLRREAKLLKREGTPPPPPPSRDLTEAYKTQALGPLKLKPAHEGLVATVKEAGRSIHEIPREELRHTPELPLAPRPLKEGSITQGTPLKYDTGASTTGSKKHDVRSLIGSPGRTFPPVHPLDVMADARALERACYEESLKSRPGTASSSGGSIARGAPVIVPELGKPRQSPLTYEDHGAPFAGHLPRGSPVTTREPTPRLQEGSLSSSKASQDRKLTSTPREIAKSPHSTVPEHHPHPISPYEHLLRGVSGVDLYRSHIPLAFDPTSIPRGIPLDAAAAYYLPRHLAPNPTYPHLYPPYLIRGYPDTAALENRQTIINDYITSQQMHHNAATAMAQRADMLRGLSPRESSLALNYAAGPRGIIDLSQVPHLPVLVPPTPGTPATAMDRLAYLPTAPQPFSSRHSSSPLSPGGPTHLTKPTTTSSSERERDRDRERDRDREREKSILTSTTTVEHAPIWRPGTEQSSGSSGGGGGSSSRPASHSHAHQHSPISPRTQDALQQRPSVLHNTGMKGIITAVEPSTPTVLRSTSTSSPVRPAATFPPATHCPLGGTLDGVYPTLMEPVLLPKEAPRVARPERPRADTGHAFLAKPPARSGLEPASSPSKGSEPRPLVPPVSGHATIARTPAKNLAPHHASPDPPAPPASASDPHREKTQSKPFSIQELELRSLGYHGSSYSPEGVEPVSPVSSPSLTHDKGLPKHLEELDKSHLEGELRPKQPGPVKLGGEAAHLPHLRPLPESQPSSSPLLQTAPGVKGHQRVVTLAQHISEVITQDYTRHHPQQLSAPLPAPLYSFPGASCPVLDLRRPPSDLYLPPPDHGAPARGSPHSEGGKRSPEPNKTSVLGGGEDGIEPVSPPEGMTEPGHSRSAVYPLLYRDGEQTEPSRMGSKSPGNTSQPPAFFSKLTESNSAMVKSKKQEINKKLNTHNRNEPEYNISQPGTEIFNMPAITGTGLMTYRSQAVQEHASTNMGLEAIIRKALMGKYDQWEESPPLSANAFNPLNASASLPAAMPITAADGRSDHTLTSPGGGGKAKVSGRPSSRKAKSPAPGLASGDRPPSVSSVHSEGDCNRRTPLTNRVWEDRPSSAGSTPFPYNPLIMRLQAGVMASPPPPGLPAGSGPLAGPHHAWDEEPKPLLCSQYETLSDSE

[5] = biological target: T2, Sentrin-specific protease 8 (Homo sapiens, UniProt Q96LD8); format: functional;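 note: luminescence read-out of SENP8 inhibition, dose-response confirmation following an ultra-high-throughput screen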
T2 sequence (Q96LD8 whole entry): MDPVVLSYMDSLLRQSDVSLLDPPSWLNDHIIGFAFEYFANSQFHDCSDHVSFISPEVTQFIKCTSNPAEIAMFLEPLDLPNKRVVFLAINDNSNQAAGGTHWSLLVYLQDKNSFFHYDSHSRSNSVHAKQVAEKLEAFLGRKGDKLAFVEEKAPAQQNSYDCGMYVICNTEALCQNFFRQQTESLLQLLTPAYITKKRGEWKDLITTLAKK

[6] = biological target: Tyrosyl-DNA phosphodiesterase 2 (Homo sapiens, UniProt O95551); experiment: potency against TDP2 phosphodiesterase activity – biochemical, epi absorbance, IC50, dose response (AID 743297)
Sequence of Tyrosyl-DNA phosphodiesterase 2 (O95551 whole entry): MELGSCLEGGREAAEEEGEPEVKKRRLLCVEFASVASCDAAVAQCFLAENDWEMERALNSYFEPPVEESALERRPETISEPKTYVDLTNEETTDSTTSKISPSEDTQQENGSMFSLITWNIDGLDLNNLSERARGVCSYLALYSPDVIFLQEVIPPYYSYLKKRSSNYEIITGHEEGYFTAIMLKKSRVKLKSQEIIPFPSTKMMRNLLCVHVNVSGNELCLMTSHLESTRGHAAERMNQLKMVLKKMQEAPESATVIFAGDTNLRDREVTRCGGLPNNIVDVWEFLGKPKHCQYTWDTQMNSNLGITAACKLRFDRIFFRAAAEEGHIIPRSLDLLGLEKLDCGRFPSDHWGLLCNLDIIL

[7] = biological target: T3, Mannose-6-phosphate isomerase (Homo sapiens, UniProt P34949); experiment: MPI inhibition at elevated mannose 6-phosphate – biochemical, fluorescence intensity, high mannose 6-phosphate, primary screen (AID 1220)
T3 sequence (P34949 whole entry): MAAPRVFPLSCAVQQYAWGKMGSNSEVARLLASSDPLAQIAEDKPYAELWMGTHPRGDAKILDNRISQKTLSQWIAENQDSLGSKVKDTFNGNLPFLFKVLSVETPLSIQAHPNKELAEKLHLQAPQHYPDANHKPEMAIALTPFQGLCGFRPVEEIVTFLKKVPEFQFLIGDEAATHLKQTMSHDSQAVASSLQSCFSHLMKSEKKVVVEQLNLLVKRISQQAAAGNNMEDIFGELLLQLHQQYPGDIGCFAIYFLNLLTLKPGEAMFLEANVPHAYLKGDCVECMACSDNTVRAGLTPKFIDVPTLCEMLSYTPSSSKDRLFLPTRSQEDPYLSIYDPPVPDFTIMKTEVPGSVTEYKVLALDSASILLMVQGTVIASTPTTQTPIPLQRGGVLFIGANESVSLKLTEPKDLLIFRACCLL

[8] = biological target: Troponin, cardiac muscle (Homo sapiens, UniProt P19429+P45379+P63316); experiment: compounds desensitizing RTF to calcium – biochemical, fluorescence, cardiac regulated thin filaments, triplicate IC50, dose response (AID 504742); format: protein-complex assay
[9] = biological target: Genome polyprotein (dengue virus type 2, UniProt P29990); experiment: flavivirus cap methylation enzyme inhibition – biochemical, confirmation dose response, primary screen (AID 588689); format: functional
Sequence of Genome polyprotein (P29990 2492-3391 limits assumed): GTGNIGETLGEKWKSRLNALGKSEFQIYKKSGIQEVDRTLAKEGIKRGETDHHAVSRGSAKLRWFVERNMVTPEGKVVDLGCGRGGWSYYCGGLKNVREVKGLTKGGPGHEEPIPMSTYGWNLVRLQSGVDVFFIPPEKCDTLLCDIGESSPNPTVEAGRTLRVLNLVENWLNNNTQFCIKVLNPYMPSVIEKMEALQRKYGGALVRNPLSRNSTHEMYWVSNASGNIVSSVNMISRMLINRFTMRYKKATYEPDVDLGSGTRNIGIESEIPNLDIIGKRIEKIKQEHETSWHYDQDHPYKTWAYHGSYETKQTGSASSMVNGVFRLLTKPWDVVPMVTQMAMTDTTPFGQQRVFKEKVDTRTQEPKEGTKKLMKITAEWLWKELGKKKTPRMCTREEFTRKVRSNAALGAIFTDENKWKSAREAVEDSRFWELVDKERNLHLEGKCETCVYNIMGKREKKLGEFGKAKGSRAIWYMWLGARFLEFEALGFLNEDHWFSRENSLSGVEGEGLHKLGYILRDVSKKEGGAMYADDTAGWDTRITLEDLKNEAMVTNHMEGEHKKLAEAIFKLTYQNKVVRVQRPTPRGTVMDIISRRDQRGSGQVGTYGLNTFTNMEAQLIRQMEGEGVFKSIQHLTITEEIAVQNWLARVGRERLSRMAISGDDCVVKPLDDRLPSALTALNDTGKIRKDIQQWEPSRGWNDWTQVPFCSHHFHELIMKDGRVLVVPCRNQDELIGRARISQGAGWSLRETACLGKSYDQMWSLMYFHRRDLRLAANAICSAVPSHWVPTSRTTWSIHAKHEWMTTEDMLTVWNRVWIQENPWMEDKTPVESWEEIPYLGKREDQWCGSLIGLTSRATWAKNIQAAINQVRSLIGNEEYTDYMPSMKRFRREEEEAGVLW

[10] = biological target: T4, DNA repair and recombination protein RAD54-like (Homo sapiens, UniProt Q92698); experiment: RAD54 Holliday junction migration blockers – biochemical, fluorescence, cherry-picked samples, dose series, confirmation (AID 651657); format: functional
T4 sequence (Q92698 whole entry): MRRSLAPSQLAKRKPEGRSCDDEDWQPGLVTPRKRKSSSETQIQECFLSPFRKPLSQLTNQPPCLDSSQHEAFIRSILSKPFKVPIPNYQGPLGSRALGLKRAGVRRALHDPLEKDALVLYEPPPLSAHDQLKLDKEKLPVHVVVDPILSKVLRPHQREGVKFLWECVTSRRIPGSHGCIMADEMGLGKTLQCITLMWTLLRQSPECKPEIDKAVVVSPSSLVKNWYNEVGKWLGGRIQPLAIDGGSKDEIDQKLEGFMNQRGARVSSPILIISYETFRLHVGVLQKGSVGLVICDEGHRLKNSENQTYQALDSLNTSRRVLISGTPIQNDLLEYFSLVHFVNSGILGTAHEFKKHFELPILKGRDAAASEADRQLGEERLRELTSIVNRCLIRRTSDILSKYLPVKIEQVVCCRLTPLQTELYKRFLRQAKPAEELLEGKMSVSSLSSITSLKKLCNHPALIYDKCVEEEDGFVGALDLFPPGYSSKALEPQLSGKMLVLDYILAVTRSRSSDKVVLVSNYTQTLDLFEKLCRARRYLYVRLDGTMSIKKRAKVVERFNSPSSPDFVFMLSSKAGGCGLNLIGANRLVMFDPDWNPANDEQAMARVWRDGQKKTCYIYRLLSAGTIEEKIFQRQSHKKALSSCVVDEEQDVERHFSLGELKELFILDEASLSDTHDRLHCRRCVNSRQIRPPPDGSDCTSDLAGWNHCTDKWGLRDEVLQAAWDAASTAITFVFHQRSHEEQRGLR

[11] = tested on: HepG2; experiment: viability loss in HepG2 hepatoma cells – cell-based, cherry-picks, set 2, cytotoxicity control, dose response (AID 687002); format: functional; settings: Homo sapiens
[12] = tested on: Cryptococcus neoformans; experiment: PubChem AID 686997; format: functional, organism-based

SMILES: CCCCCCCCCCOC(=O)Cn1c(COc2ccccc2)[n+](C)c2ccccc21
EC50 [1]: 6.91 µM (active)
EC50 [2]: 7.89 µM (active)

IC50 [3]: 96.9 µM (active)
IC50 [4]: 5.08 µM (active)
IC50 [6]: 29.1 µM (inactive)
SMILES: N#Cc1c(NC(=O)c2ccc(Br)o2)n(-c2ccccc2)c2nc3ccccc3nc12
IC50 [5]: 4.55 µM (active)

SMILES: COc1cc(-c2nnc(SCc3cc(=O)oc4cc(O)c(O)cc34)o2)cc(OC)c1OC
IC50 [7]: > 50 µM (not active)
IC50 [8]: > 2.65 µM (active)
IC50 [9]: > 100 µM (active)

SMILES: CCOC(=O)c1c(-c2ccc(-c3ccccc3)cc2)csc1NC(=O)CNCCN(C)C
AC50 [10]: 68 µM (active)
AC50 [11]: 18.4 µM (active)
AC50 [12]: 20.9 µM (active)
